# System: HSV-1
# Assay: HSV-1 replication in infected Vero 76 cells, viral DNA detected by hybridization capture
# Assay type: cell-based, herpes simplex virus 1
# Details: Human alphaherpesvirus 1; HSV-1, Vero 76 cells, MOI=0.001, 40-48 hours incubation
# Method: Vero 76 cells were maintained in MEM with Earle's salts, L-glutamine, 8% FBS (Hyclone, A-1111-L) and 100 units/mL Penicillin-100 μg/mL Streptomycin. For assay conditions, FBS was reduced to 2%. Cells are seeded into 96-well tissue culture plates at a density of 5×10^4 cells/well after being incubated for 45 min at 37° C. in the presence of HSV-1 or HSV-2 (MOI=0.001). Test compounds are added to the wells and the plates are incubated at 37° C. for 40-48 hours. Cell lysates are prepared as follows: media was removed and replaced with 150 μL/well 0.2 N NaOH with 1% Igepal CA 630 or NP-40. Plates were incubated up to 14 days at room temperature in a humidified chamber to prevent evaporation.
# For the detection probe, a gel-purified, digoxigenin-labeled, 710-bp PCR fragment of the HSV UL-15 sequence was utilized. PCR conditions included 0.5 μM primers, 180 μM dTTP, 20 μM dUTP-digoxigenin (Boehringer Mannheim 1558706), 200 μM each of dATP, dCTP, and dGTP, 1× PCR Buffer II (Perkin Elmer), 2.5 mM MgCl2, 0.025 units/μL of AmpliTaq Gold polymerase (Perkin Elmer), and 5 ng of gel-purified HSV DNA per 100 μL Extension conditions were 10 min at 95° C., followed by 30 cycles of 95° C. for 1 min. 55° C. for 30 sec. and 72° C. for 2 min. The amplification was completed with a 10-min incubation at 72° C. […] Single-stranded transcripts were purified with Promega M13 Wizard kits. The final product was mixed 1:1 with a mixture of 6 M GuSCN, 100 mM EDTA and 200 μg/mL herring sperm DNA and stored at 4° C.
# The capture DNA plasmid (HSV UL13 region in pUC) was linearized by cutting with Xbal, denatured for 15 min at 95° C. and diluted immediately into Reacti-Bind DNA Coating Solution (Pierce, 17250, diluted 1:1 with TE buffer, pH 8) at 1 ng/μL. 75 μL/well were added to Corning (#3922 or 9690) white 96-well plates and incubated at room temperature for at least 4 hrs before washing twice with 300 μL/well 0.2×SSC/0.05% Tween-20 (SSC/T buffer). The plates were then incubated overnight at room temperature with 150 μL/well 0.2 N NaOH, 1% IGEPAL and 10 μg/mL herring sperm DNA.
# Twenty-seven (27) μL of cell lysate was combined with 45 μL of hybridization solution (final concentration: 3M GuSCN, 50 mM EDTA, 100 μg/ml salmon sperm DNA, 5× Denhardt's solution, 0.25×APE, and 5 ng of the digoxigenin-labeled detection probe). APE is 1.5 M NH4-acetate, 0.15 M ammonium phosphate monobasic, and 5 mM EDTA adjusted to pH 6.0. Mineral oil (50 μL) was added to prevent evaporation. The hybridization plates were incubated at 95° C. for 10 minutes to denature the DNA, then incubated at 42° C. overnight. The wells were washed 6× with 300 μL/well SSC/T buffer then incubated with 75 μL/well anti-digoxigenin- HRP-conjugated antibody (Boehringer Mannheim 1207733, 1:5000 in TE) for 30 min at room temperature. The wells were washed 6× with 300 μL/well with PBS/0.05% Tween-20 before 75 μL/well SuperSignal LBA substrate (Pierce) was added. The plates were incubated at room temperature for 30 minutes and chemiluminescence was measured in a Wallac Victor reader.
# The following results were obtained for HSV-1.
row,Compound,IC50 [nM]
1,"COc1ccc(-c2nn3c(Sc4ccccc4)cc(NC4CCCC4)cc3c2-c2ccnc(NC3CCCC3)n2)cc1 [Example 12, N-Cyclopentyl-3-[2-(cyclopentylamino)-4-pyrimidinyl]-2-(4-methoxyphenyl)-7-(phenylsulfanyl)pyrazolo[1,5-α]pyridin-5-amine]",2000
2,"COCCOc1cc(NC2CCCC2)cc2c(-c3ccnc(NC4CCCC4)n3)c(-c3ccc(F)cc3)nn12 [Example 6, N-Cyclopentyl-3-[2-(cyclopentylamino)-4-pyrimidinyl]-2-(4-fluorophenyl)-7-(2-methoxyethoxy)pyrazolo[1,5-α]pyridin-5-amine]",82
3,"CC(C)Sc1cc(NC2CCCC2)cc2c(-c3ccnc(NC4CCCC4)n3)c(-c3ccc(F)cc3)nn12 [Example 13, N-Cyclopentyl-3-[2-(cyclopentylamino)-4-pyrimidinyl]-2-(4-fluorophenyl)-7-(isopropylsulfanyl)pyrazolo[1,5-α]pyridin-5-amine]",260
4,"CCOc1cc(NC2CCCC2)cc2c(-c3ccnc(NC4CCCC4)n3)c(-c3ccc(F)cc3)nn12 [Example 4, N-Cyclopentyl-3-[2-(cyclopentylamino)-4-pyrimidinyl]-7-ethoxy-2-(4-fluorophenyl)pyrazolo[1,5-α]pyridin-5-amine]",160
5,"COc1ccc(-c2nn3c(SC(C)C)cc(NC4CCCC4)cc3c2-c2ccnc(NC3CCCC3)n2)cc1 [Example 11, N-Cyclopentyl-3-[2-(cyclopentylamino)-4-pyrimidinyl]-7-(isopropylsulfanyl)-2-(4-methoxyphenyl)pyrazolo[1,5-α]pyridin-5-amine]",175
6,"CCSc1cc(NC2CCCC2)cc2c(-c3ccnc(NC4CCCC4)n3)c(-c3ccc(F)cc3)nn12 [Example 2, N-Cyclopentyl-3-[2-(cyclopentylamino)-4-pyrimidinyl]-7-(ethylsulfanyl)-2-(4-fluorophenyl)pyrazolo[1,5-δ]pyridin-5-amine]",74
7,"COc1ccc(-c2nn3c(SC)cc(NC4CCCC4)cc3c2-c2ccnc(NC3CCCC3)n2)cc1 [Example 9, N-Cyclopentyl-3-[2-(cyclopentylamino)-4-pyrimidinyl]-2-(4-methoxyphenyl)-7-(methylsulfanyl)pyrazolo[1,5-α]pyridin-5-amine]",135
8,"Cc1cc(NC2CCCC2)cc2c(-c3ccnc(NC4CCCC4)n3)c(-c3ccc(F)cc3)nn12 [Example 3, N-Cyclopentyl-3-[2-(cyclopentylamino)-4-pyrimidinyl]-2-(4-fluorophenyl)-7-methylpyrazolo[1,5-α]pyridin-5-amine]",322
9,"CSc1cc(NC2CCCC2)cc2c(-c3ccnc(NC4CCCC4)n3)c(-c3ccc(F)cc3)nn12 [Example 5, N-Cyclopentyl-3-[2-(cyclopentylamino)-4-pyrimidinyl]-2-(4-fluorophenyl)-7-(methylsulfanyl)pyrazolo[1,5-α]pyridin-5-amine]",130
10,"CCSc1cc(NC2CCCC2)cc2c(-c3ccnc(NC4CCCC4)n3)c(-c3ccc(OC)cc3)nn12 [Example 10, N-Cyclopentyl-3-[2-(cyclopentylamino)-4-pyrimidinyl]-7-(ethylsulfanyl)-2-(4-methoxyphenyl)pyrazolo[1,5-α]pyridin-5-amine]",46

# Source: patent US20040214834A1, “Pyrazolo-pyridines for the treatment of herpes infections” (priority 2001, published 2004)
